From patent US11591355B2 (Peloton Therapeutics, Inc., priority 2017, dated 2023) come the findings set out here.

Each structure is given as a SMILES string. Some results are limits rather than exact numbers.

One test has as its target T1, Human CD73 (Homo sapiens, UniProt P21589).
T1 construct: purchased R&D Systems; host or cells: CHO cells
T1 sequence (P21589 27-549): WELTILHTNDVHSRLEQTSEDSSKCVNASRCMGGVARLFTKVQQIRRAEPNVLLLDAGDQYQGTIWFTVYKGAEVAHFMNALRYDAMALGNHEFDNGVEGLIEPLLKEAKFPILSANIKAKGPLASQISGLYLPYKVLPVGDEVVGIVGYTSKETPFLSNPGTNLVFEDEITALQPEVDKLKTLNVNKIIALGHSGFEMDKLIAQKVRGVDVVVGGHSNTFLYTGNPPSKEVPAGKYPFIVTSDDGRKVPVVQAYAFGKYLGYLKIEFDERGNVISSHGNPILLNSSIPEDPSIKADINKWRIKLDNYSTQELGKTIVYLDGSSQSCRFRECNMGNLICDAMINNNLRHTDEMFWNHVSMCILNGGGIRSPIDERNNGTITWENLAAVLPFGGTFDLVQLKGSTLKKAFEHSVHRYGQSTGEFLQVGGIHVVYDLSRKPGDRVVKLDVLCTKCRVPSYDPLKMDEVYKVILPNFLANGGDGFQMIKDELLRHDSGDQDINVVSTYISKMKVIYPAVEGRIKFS
Put plainly: CD73 Enzyme Assay. It is filed as biochemical. The settings on record: 0.25 nM hCD73, 25 μM AMP, kinetic read at 360 nm; read-out: CD73 Enzyme Assay IC50.

The target in test [1] is T2, CD73 on U138 human neuroglioma cells (Homo sapiens, UniProt P21589).
T2 construct: U138 cells were obtained from ATCC and cultured in DMEM with 10% FBS; host or cells: U138 human neuroglioma cells
T2 sequence (P21589 27-549): T1 sequence (P21589 27-549)
Put plainly: CD73 Cell-Based Assay. The conditions noted are these: U138 cells, AMP substrate, 2 hours at 37° C., inorganic phosphate by malachite green. A digest of the protocol:
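Whole U138 cells washed free of phosphate were incubated with 200 μM AMP (mixture concentration before equal-volume addition) plus compound in HEPES-buffered saline, pH 7.4, for 2 h at 37 °C, 5% CO2. Adenosine-forming activity read as inorganic phosphate released into supernatant by malachite green.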

As to `O=P(O)(O)COC[C@H]1O[C@@H](n2ccc3c(NC4CCC(F)(F)CC4)nc(Cl)nc32)[C@H](O)[C@@H]1O` [Compound 121, [(2R,3S,4R,5R)-5-[2-chloro-4-[(4,4-difluorocyclohexyl)-amino]pyrrolo[2,3-d]-pyrimidin-7-yl]-3,4-dihydroxy-tetrahydro-furan-2-yl]methoxy-methylphosphonic acid], the IC50 on Human CD73 is 10 to 100 nM; in test [1] it was below 10 nM.

In the case of `C[C@@H](Nc1nc(Cl)nc2c1ccn2[C@@H]1O[C@H](COCP(=O)(O)O)[C@@H](O)[C@H]1O)c1ccc(F)cn1` [Compound 135, [(2R,3S,4R,5R)-5-[2-chloro-4-[[(1R)-1-(5-fluoro-2-pyridyl)ethyl]-amino]pyrrolo[2,3-d]-pyrimidin-7-yl]-3,4-dihydroxy-tetrahydro-furan-2-yl]methoxy-methylphosphonic acid], the IC50 at Human CD73 fell in the range of 100 to 1000 nM; in test [1], 10 to 100 nM.

Turning to `C[C@@H](Nc1nc(Cl)nc2c1c(F)cn2[C@@H]1O[C@H](COCP(=O)(O)O)[C@@H](O)[C@H]1O)c1ccccc1` [Compound 130, [(2R,3S,4R,5R)-5-[2-chloro-5-fluoro-4-[[(1R)-1-phenylethyl]-amino]pyrrolo[2,3-d]-pyrimidin-7-yl]-3,4-dihydroxy-tetrahydro-furan-2-yl]methoxy-methylphosphonic acid], the IC50 (at Human CD73; in test [1]) was 10 to 100 nM in each case.

On to `O=P(O)(O)COC[C@H]1O[C@@H](n2ncc3c(N4CCC(F)(F)C4)nc(Cl)nc32)[C@H](O)[C@@H]1O` [Compound 275, [(2R,3S,4R,5R)-5-[6-chloro-4-(3,3-difluoro-pyrrolidin-1-yl)-pyrazolo[3,4-d]-pyrimidin-1-yl]-3,4-dihydroxy-tetrahydro-furan-2-yl]methoxy-methylphosphonic acid], for which the IC50 (on Human CD73; in test [1]) was below 10 nM throughout.

With `O=P(O)(O)CS(=O)(=O)C[C@H]1O[C@@H](n2ccc3c(NC4CCCC4)nc(Cl)nc32)[C@H](O)[C@@H]1O` [Compound 155, (((((2S,3S,4R,5R)-5-(2-chloro-4-(cyclopentylamino)-7H-pyrrolo[2,3-d]pyrimidin-7-yl)-3,4-dihydroxytetrahydrofuran-2-yl)methyl)sulfonyl)methyl)phosphonic acid], the 50% inhibitory concentration (IC50) (on Human CD73; in test [1]) was below 10 nM in each case.

For `CC[C@@H](Nc1nc(Cl)nc2c1ccn2[C@@H]1O[C@H](COCP(=O)(O)O)[C@@H](O)[C@H]1O)c1ccccc1` [Compound 77, [(2R,3S,4R,5R)-5-[2-chloro-4-[[(1R)-1-phenylpropyl]amino]-pyrrolo[2,3-d]-pyrimidin-7-yl]-3,4-dihydroxy-tetrahydro-furan-2-yl]methoxy-methylphosphonic acid], the IC50 (at Human CD73; in test [1]) was 10 to 100 nM each time.

Take `O=P(O)(O)COC[C@H]1O[C@@H](n2ccc3c(NC4CC(F)(F)C4)nc(Cl)nc32)[C@H](O)[C@@H]1O` [Compound 83, [(2R,3S,4R,5R)-5-[2-chloro-4-[(3,3-difluoro-cyclobutyl)amino]-pyrrolo[2,3-d]-pyrimidin-7-yl]-3,4-dihydroxy-tetrahydro-furan-2-yl]methoxy-methylphosphonic acid]: the IC50 (at Human CD73; in test [1]) was below 10 nM in each case.

`N#Cc1nc(N2CC3CCCC3C2)c2cnn([C@@H]3O[C@H](CS(=O)(=O)CP(=O)(O)O)[C@@H](O)[C@H]3O)c2n1` (stereo partly drawn) [Compound 299, [(2S,3S,4R,5R)-5-[4-(3,3a,4,5,6,6a-hexa-hydro-1H-cyclopenta-[c]pyrrol-2-yl)-6-cyano-pyrazolo[3,4-d]-pyrimidin-1-yl]-3,4-dihydroxy-tetrahydro-furan-2-yl]methyl-sulfonylmethylphos-phonic acid]: the IC50 (at Human CD73; in test [1]) was below 10 nM throughout.

As for `C[C@@H](Nc1nc(C#N)nc2c1ccn2[C@@H]1O[C@H](COCP(=O)(O)O)[C@@H](O)[C@H]1O)c1ccc(F)cc1F` [Compound 189, [(2R,3S,4R,5R)-5-[2-cyano-4-[[(1R)-1-(2,4-difluorophenyl)ethyl]-amino]pyrrolo[2,3-d]-pyrimidin-7-yl]-3,4-dihydroxy-tetrahydro-furan-2-yl]methoxy-methylphosphonic acid], the 50% inhibitory concentration (IC50) (on Human CD73; in test [1]) was below 10 nM throughout.

Turning to `Cc1ccc([C@H](C)Nc2nc(Cl)nc3c2ccn3[C@@H]2O[C@H](CS(=O)(=O)CP(=O)(O)O)[C@@H](O)[C@H]2O)cc1` [Compound 170, [(2S,3S,4R,5R)-5-[2-chloro-4-[[(1S)-1-(p-tolyl)ethyl]amino]-pyrrolo[2,3-d]-pyrimidin-7-yl]-3,4-dihydroxy-tetrahydro-furan-2-yl]methyl-sulfonylmethylphos-phonic acid], the half-inhibitory concentration (IC50) (at Human CD73; in test [1]) was below 10 nM each time.

Take `O=P(O)(O)COC[C@H]1O[C@@H](n2cnc3c(OC4CCCC4)ncnc32)[C@H](O)[C@@H]1O` [Compound 55, [(2R,3S,4R,5R)-5-[6-(cyclopentoxy)purin-9-yl]-3,4-dihydroxy-tetrahydrofuran-2-yl]-methoxymethylphos-phonic acid]: the IC50 at Human CD73 is 100 to 1000 nM; in test [1] it was above 1000 nM.

As to `CC(C)[C@H](Nc1nc(Cl)nc2c1ccn2[C@@H]1O[C@H](COCP(=O)(O)O)[C@@H](O)[C@H]1O)c1ccccc1` [Compound 85, [(2R,3S,4R,5R)-5-[2-chloro-4-[[(1S)-2-methyl-1-phenyl-propyl]amino]pyrrolo-[2,3-d]pyrimidin-7-yl]-3,4-dihydroxy-tetrahydrofuran-2-yl]methoxymethyl-phosphonic acid], the IC50 (on Human CD73; in test [1]) was below 10 nM in each case.

On to `O=P(O)(O)COC[C@H]1O[C@@H](n2ccc3c(NC4CCCC4)nc(I)nc32)[C@H](O)[C@@H]1O` [Compound 230, [(2R,3S,4R,5R)-5-[4-(cyclopentylamino)-2-iodo-pyrrolo[2,3-d]-pyrimidin-7-yl]-3,4-dihydroxy-tetrahydro-furan-2-yl]methoxy-methylphosphonic acid], for which the IC50 (on Human CD73; in test [1]) was below 10 nM in each case.

Turning to `O=P(O)(O)COC[C@H]1O[C@@H](n2cnc3c(N4Cc5ccccc5C4)nc(Cl)nc32)[C@H](O)[C@@H]1O` [Compound 54, [(2R,3S,4R,5R)-5-(2-chloro-6-isoindolin-2-yl-purin-9-yl)-3,4-dihydroxy-tetrahydro-furan-2-yl]methoxy-methylphosphonic acid], the IC50 (at Human CD73; in test [1]) was 10 to 100 nM throughout.

With `O=P(O)(O)COC[C@H]1O[C@@H](n2ccc3c(NC4CCOCC4)nc(Cl)nc32)[C@H](O)[C@@H]1O` [Compound 99, [(2R,3S,4R,5R)-5-[2-chloro-4-(tetrahydro-pyran-4-ylamino)-pyrrolo[2,3-d]-pyrimidin-7-yl]-3,4-dihydroxy-tetrahydro-furan-2-yl]methoxy-methylphosphonic acid], the IC50 (on Human CD73; in test [1]) was 10 to 100 nM in each case.

For the molecule `C[C@H](Nc1nc(Cl)nc2c1ccn2[C@@H]1O[C@H](COCP(=O)(O)O)[C@@H](O)[C@H]1O)c1ccccc1` [Compound 60, [(2R,3S,4R,5R)-5-[2-chloro-4-[[(1S)-1-phenylethyl]amino]-pyrrolo[2,3-d]-pyrimidin-7-yl]-3,4-dihydroxy-tetrahydro-furan-2-yl]methoxy-methylphosphonic acid], the IC50 on Human CD73 was below 10 nM; in test [1], 10 to 100 nM.
